According to patent US12187715B2, “Small molecule activators of Tie-2” (EyePoint Pharmaceuticals, Inc., priority 2019, dated 2025):
Entries after “also recorded” stand apart in the source; their conditions may differ.

Key:
[1] = system: phospho-Akt1 (pAkt); test: Phospho-Akt activation assay in human umbilical vein endothelial cells (Western blot); type: cell-based
Procedure: The ability of the small molecule analogues as shown in EXAMPLES 1-3 to stimulate production of phospho-Akt1 (pAkt) was tested. Akt plays a critical role in controlling cell survival and apoptosis, and Akt phosphorylation is increased by the activation of Tie-2. Akt activation can be detected by an antibody that recognizes phosphorylation on the serine 473 residue on Akt.
HUVECs were seeded at 500,000 cells/mL in chemically-defined basal media, and supplemented with distinct growth factors (EGM-2). The following growth factors were required for survival and normal phenotypic expression of endothelial characteristics: fetal bovine serum 2%, hydrocortisone, human fibroblast growth factor-B, vascular endothelial growth factor, recombinant insulin growth factor R3, ascorbic acid, human epidermal growth factor, gentamicin sulfate, amphotericin B, and heparin. Cells were derived from one donor, cultivated in 10 cm dishes, and expanded upon reaching 90% confluence. After three passages, the cells were expanded and ready for testing.
The cells were seeded at 25,000 cells/mL in 6-well plates, and covered with 2 mL of complete media. The cells were fed on day 2 of culture with 2 mL of fresh EGM-2 media. 72 hours after plating, the cells were serum starved by rinsing twice with 2 mL of sterile phosphate buffered saline, and then placed at 37° C. for 3 hours in the presence of basal EGM-2 media (1.5 mL/well without growth factors). The serum starvation allowed the cells to become quiescent.
Compounds 2-4 were dissolved in distilled deionized water at the following concentrations: • Compound 2 (Molecular weight: 622.7): 31 mg/ml. • Compound 3 (Molecular weight: 622.7): 26 mg/ml. • Compound 4 (Molecular weight: 636.7): 32 mg/ml.
All compounds were stored at 4° C. […] Stock concentrations of the above molecules were made at a final working concentration of 1 mM. Specific microliter volumes of the working concentration were added to each 6 well plate at the following concentrations: 3, 10, and 30 micromolar (μM). Cells were treated for 30 minutes.
10× cell lysis buffer was diluted fresh with dH2O. The 1× cell lysis buffer contained: 20 mM Tris-HCl (pH 7.5), 150 mM NaCl, 1 mM Na2EDTA, 1 mM EGTA, 1% Triton, 2.5 mM sodium pyrophosphate, 1 mM β-glycerophosphate, 1 mM Na3VO4, 1 μg/ml leupeptin, and 1 mM PMSF. Immediately before use, 1 mM PMSF was prepared by diluting from a stock of 1 M PMSF made up in DMSO. In addition, a 1× concentration of a Halt protease & phosphatase inhibitor cocktail was included. At the end of the 30 minute treatment, the media was discarded from the cell culture wells by shaking out, and the remaining media was aspirated off the wells. Ice-cold lysis buffer was added at 140 μL/well, and the culture was placed on ice or in a cold room for 30 minutes while rocking. Cell lysates were collected using a cell scraper, placed in microfuge tubes, and stored at −80° C. The levels of protein were quantitated using a microtiter plate BCA protein assay.
2× Laemmli sample buffer was added in equal volume to the […] cell lysis buffer, which contained the lysed endothelial cells. The solution was heated at 100° C. for 5 minutes and then sonicated for 10 seconds. After sonication, the lysates were spun by centrifuge at 4° C. for 5 minutes at 17,000 rpm. 70-100 μg of protein calculated from BCA assay prior to addition of 2× Laemmli sample were added per well of an 8% polyacrylamide gel.
Electrophoresis was performed at 150 volts for approximately 90 minutes at room temperature with 1× Laemmli running buffer. The proteins from the gel were transferred to nitrocellulose at 100 volts for 45 minutes on ice.
The nitrocellulose membranes were removed quickly without drying and placed in phosphate buffered saline (pH 7.3) with 1% nonfat dried milk. The membranes were blocked in the milk solution while rocking for 2 hours at room temperature or overnight at 4° C. […]

[2] = Syringability testing (200 g weight on BD 1-mL syringe plunger, 27 G needle); type: physicochemical; details: for Syringability: time to expel 1 mL: 50% diluted solution
Procedure: Syringability testing was carried out by applying 200 g of weight on top of a BD 1-mL syringe plunger and measuring the time required to expel 1 mL of the saturated solutions through a 27 G needle. The times are recorded in TABLE 4. At T=0, 43 seconds were required to expel 1 mL of Compound 2, while 8 seconds were required to expel 1 mL of Compound 4. In contrast, approximately 5 minutes were required to expel only 0.1 mL of Compound 3, based on the very high viscosity of the solution relative to that of the other two.
Syringability test results of the 50% diluted solutions (TABLE 5) indicated a slight increase in viscosity (syringability test for water was 10 sec). All three solutions remained easily syringable.

[3] = Solubility testing in water by portionwise addition until saturation; type: physicochemical
Procedure: The solubility of compounds 2-4 was determined by portionwise addition of the compounds to water until saturation was obtained. Water (10 mL) was added to a 20-mL vial. About 100 mg of Compound 2 was added. The suspension was stirred at room temperature for 20 minutes until the contents became a clear solution. Compound 2 (˜100 mg portionwise) was added repeatedly with 30 min stirring time between the additions. Once a suspension was obtained after continuous stirring for 2 hours, the suspension was stirred overnight. The same procedure was used for the suspension preparations of Compound 3 and Compound 4.
After stirring overnight, filtration of each sample was attempted.
An aliquot of the suspension of Compound 2 was filtered through a 0.22 micron inline syringe filter.
About 1 mL of the aqueous solutions prepared above was diluted with water by 50%. The pH of the 50% diluted solutions was adjusted to pH 7 either by 0.1 N HCl or by 0.1 N NaOH. Solubility values for the three compounds in the solutions/suspensions before and after dilution are given in the in TABLE 3.
The solubility of Compounds 2-4 was determined by portionwise addition of the compounds to water until saturation was obtained. After stirring overnight, the suspensions were filtered and analyzed by HPLC. […] The solubility of Compound 3 was >200 mg/mL. The absolute solubility of Compound 3 was not determined because in the course of analysis, the solution of Compound 3 became too viscous to stir. […] The 50% diluted solutions of Compounds 2-4 were not viscous, and the compounds remained in solution for 4 weeks. […] All of the diluted solutions were easily syringable over 4 weeks' time.

[4] = Physical stability (appearance) of the aqueous solutions standing at room temperature; type: physicochemical; details: for Appearance of solution: undiluted
[5] = HPLC purity analyses of aqueous solutions over time at room temperature (chemical stability); type: physicochemical

In the case of `CCc1csc([C@H](Cc2ccc(NS(=O)(=O)O)cc2)NC(=O)[C@H](Cc2ccccc2)NC(=O)OC)n1` [Compound 5, 4-{(S)-2-[(S)-2-(methoxycarbonylamino)-3-phenylpropanamido]-2-(4-ethylthiazol-2-yl)ethyl}phenylsulfamic acid, reference compound], the “pAkt levels above control” value ([1]; HUVECs, highest dose 10 μM, two separate experiments) is reported as 278%.
For `COC(=O)N[C@@H](Cc1ccccc1)C(=O)N(C)[C@@H](Cc1ccc(NS(=O)(=O)[O-])cc1)c1csc(-c2cccs2)n1.[Na+]` [Compound 3, sodium (4-{(S)-2-{(S)-2-[(methoxycarbonyl)amino]-N-methyl-3-phenylpropanamido}-2-[2-(thiophen-2-yl)thiazol-4-yl]ethyl}phenyl)sulfamate], the “Syringability: time to expel 1 mL” value ([2]; T = 2 week) was 12 s, the “Syringability: time to expel 1 mL” value ([2]; T = 3 week) was 13 s and the “Syringability: time to expel 1 mL” value ([2]; T = 4 week) was 15 s. The “Syringability: time to expel 1 mL” value ([2]; T = 2 day) was 13 s, the “Syringability: time to expel 1 mL” value ([2]; T = 3 day) was 14 s and the “Syringability: time to expel 1 mL” value ([2]; T = 4 day) was 17 s. The “Syringability: time to expel 1 mL” value ([2]; T = 7 day) was 15 s, the “Syringability of the saturated solutions (in words)” value ([2]; undiluted solutions) was “too viscous to syringe” and the “pAkt signal above control” value ([1]; HUVECs, 30 μM, 30 minutes treatment) was 80%. The “Relative potencies for activation of pAkt” value ([1]; HUVECs, 3, 10 and 30 μM) was “Compound 2>Compound 4>Compound 3”, the “Physical state of the preparation” value ([3]; 50% dilution, T = 4 weeks) was “(solution)” and the “Physical state of the preparation” value ([3]; Before dilution, T = 0) was “(viscous solution)”. The “Solubility value in water” value ([3]; Before dilution, T = 5 weeks, room temperature) was “No change*”, the “Amount (g) of compound added until saturation” value ([3]; added portionwise to 10 mL water, room temperature) was 2.323 g and the Physical appearance ([3]; after portionwise addition to 10 mL water) was “hazy, highly viscous mixture; also recorded: No precipitate”. The Filtration ([3]; filtration of the sample attempted after stirring overnight) was “not filtered successfully and No”, the solubility at 4 weeks ([3]; water, pH 7, aqueous buffer, 50% dilution with water, adjusted to pH 7, T = 4 weeks) was over 115 mg/mL and the solubility at 0 weeks ([3]; water, thermodynamic from solid, Before dilution, T = 0, estimated from weight added) was over 230 mg/mL. The solubility ([3]; water, thermodynamic from solid, Conclusions: suspensions stirred overnight, filtered and analyzed by HPLC, initial) was over 200 mg/mL, the “Gelation or precipitation of undiluted solution” value ([4]; throughout the 4-week study period (Compound 2: over 5 weeks)) was “No gelation or precipitation” and the Appearance of solution ([4]; T = 0) was “Hazy”. The Appearance of solution ([4]; T = 2 week) was “Hazy”, the Appearance of solution ([4]; T = 3 week) was “Hazy” and the Appearance of solution ([4]; T = 4 week) was “Hazy”. The Appearance of solution ([4]; T = 1 day) was “Hazy”, the Appearance of solution ([4]; T = 2 day) was “Hazy” and the Appearance of solution ([4]; T = 3 day) was “Hazy”. For the same compound, the Appearance of solution ([4]; T = 4 day) was “Hazy”, the Appearance of solution ([4]; T = 5 day) was “Hazy” and the Appearance of solution ([4]; T = 6 day) was “Hazy”. For the same compound, the HPLC purity ([5]; 50% diluted samples, room temperature, T = 4 weeks) was 97.9%, the HPLC purity ([5]; undiluted samples, T = 0 (dry sample)) was 99.08% and the HPLC purity ([5]; undiluted samples, room temperature, T = 5 weeks) was 97.3%. It also gave an HPLC purity ([5]; undiluted samples, room temperature, T = 1 day) of 98.26%.
